Assay: xn = mol fraction of the nth substance listed
Settings: 298 K, Liquid

ClCCCl [1,2-dichloroethane] + CC(=O)N(C)C
mass density [kg/m3]
Settings	x2 = 0.0977	x2 = 0.2003	x2 = 0.2988	x2 = 0.4022	x2 = 0.4999	x2 = 0.6007	x2 = 0.7008	x2 = 0.7988	x2 = 0.8997
5000 kPa	–	–	1145.4	1111.8	1081.1	1050.5	1021.5	993.7	966.2
5500 kPa	1215	1179	1145.8	1112.2	1081.5	1050.8	1021.8	994	966.5
6000 kPa	1215.4	1179.5	1146.1	1112.6	1081.8	1051.2	1022.1	994.3	966.9
6500 kPa	1215.9	1179.9	1146.6	1113	1082.2	1051.6	1022.5	994.7	967.2
7000 kPa	1216.3	1180.3	1147	1113.4	1082.6	1052	1022.8	995	967.5
7500 kPa	1216.7	1180.7	1147.4	1113.8	1083	1052.3	1023.1	995.3	967.8
8000 kPa	1217.2	1181.2	1147.8	1114.1	1083.3	1052.7	1023.5	995.6	968.1
8500 kPa	1217.7	1181.5	1148.2	1114.5	1083.7	1053	1023.8	996	968.4
9000 kPa	1218.1	1182	1148.6	1114.9	1084	1053.4	1024.2	996.3	968.8
9500 kPa	1218.5	1182.4	1149	1115.3	1084.4	1053.8	1024.4	996.6	969
10000 kPa	1219	1182.9	1149.5	1115.7	–	–	–	–	–

From the NIST ThermoML archive (doi:10.1021/je700339f)
